Data as given in paper PMC6606794, “Crosstalk of Cellulose and Mannan Perception Pathways Leads to Inhibition of Cellulase Production in Several Filamentous Fungi” (mBio, 2019).

Tests used:
[1] = molecular target: T1, CDT-2 (Neurospora crassa, UniProt Q7SD12); assay: uptake by yeast expressing CDT-2, residual sugar by HPAEC-PAD; assay type: cell-based; conditions: 100 µM sugar, 30 min
T1 construct: pRS316-CDT2 expressed in Saccharomyces cerevisiae D452-2
T1 sequence (Q7SD12 1-525): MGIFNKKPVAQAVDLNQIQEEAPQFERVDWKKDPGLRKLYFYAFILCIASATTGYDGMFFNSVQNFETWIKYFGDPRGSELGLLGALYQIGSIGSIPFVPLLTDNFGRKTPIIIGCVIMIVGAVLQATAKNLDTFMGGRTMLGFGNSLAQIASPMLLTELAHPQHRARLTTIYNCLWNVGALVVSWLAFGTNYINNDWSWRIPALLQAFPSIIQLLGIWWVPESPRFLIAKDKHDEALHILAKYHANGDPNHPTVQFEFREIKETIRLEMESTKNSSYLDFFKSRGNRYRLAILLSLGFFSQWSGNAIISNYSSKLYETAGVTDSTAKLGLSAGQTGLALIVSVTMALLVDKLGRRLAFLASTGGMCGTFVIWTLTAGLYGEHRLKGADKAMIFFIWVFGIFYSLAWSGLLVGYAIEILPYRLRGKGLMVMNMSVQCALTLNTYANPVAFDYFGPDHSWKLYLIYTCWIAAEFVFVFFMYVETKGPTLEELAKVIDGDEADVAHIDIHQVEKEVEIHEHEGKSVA

[2] = molecular target: T2, CDT-1 (Neurospora crassa, UniProt Q7SCU1); assay: uptake by yeast expressing CDT-1, residual sugar by HPAEC-PAD; assay type: cell-based; conditions: 100 µM sugar, 30 min, over empty-vector background
T2 construct: pRS316-CDT1 expressed in Saccharomyces cerevisiae D452-2
T2 sequence (Q7SCU1 1-579): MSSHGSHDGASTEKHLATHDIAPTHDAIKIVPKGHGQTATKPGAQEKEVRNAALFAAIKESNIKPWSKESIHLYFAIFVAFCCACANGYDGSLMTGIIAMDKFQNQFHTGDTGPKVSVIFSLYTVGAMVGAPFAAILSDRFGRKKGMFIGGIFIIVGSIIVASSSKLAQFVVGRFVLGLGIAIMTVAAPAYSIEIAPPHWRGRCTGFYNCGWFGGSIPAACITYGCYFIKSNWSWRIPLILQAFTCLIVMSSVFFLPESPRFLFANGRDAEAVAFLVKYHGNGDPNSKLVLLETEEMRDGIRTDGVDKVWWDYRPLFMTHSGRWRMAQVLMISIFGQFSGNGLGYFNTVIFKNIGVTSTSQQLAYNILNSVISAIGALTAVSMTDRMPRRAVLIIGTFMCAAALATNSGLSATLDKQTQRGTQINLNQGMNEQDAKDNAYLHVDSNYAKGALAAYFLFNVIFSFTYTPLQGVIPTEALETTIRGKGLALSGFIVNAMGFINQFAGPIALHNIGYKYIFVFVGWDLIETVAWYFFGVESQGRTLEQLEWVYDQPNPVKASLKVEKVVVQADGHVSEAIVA

[3] = molecular target: T3, GH2-1 (Neurospora crassa, UniProt Q7SFE1); assay: 4-nitrophenol release, absorbance at […] nm; assay type: biochemical; conditions: 50 mM KP buffer pH 5.5, 37 °C, 1 h, 0.1 µg enzyme, 80 µg substrate
T3 construct: gh2-1 cDNA in pGAPZ-B (EcoRI/XbaI), His-tagged, expressed in Pichia pastoris X-33, purified by IMAC from cell lysate; no predicted signal peptide
T3 sequence (Q7SFE1 1-854): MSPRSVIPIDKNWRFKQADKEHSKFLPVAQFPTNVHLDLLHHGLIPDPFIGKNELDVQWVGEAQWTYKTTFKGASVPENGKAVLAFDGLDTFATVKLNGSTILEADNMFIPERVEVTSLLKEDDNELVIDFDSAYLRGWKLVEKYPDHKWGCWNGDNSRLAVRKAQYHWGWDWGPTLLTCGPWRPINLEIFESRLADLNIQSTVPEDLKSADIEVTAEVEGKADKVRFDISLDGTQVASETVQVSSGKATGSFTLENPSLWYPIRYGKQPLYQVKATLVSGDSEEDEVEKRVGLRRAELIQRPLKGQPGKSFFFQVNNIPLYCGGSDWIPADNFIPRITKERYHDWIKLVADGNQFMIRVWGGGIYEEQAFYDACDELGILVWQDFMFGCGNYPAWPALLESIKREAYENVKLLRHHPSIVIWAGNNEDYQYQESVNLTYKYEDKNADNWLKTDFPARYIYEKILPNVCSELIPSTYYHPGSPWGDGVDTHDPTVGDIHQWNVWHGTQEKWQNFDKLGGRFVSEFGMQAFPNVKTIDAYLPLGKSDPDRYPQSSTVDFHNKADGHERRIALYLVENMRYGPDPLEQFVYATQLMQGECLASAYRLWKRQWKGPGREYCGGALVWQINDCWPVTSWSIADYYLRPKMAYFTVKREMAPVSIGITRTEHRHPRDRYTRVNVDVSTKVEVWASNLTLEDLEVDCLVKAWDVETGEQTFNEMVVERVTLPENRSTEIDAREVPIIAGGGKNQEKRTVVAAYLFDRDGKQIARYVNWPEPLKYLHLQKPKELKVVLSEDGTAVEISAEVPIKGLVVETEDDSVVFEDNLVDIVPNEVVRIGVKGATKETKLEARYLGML

Row | SMILES | uptake by yeast expressing CDT-2, residual sugar by HPAEC-PAD [1] | % remaining in supernatant ([2]; competes with mannobiose) | % remaining in supernatant ([2]; competes with cellobiose) | 4-nitrophenol release, absorbance at 405 nm [3]
1 | OC[C@H]1O[C@@H](O[C@H]2[C@H](O)[C@@H](O)C(O)O[C@@H]2CO)[C@H](O)[C@@H](O)[C@@H]1O (some centres unmarked) [CB, cellobiose] | not only cellobiose was imported by both S. cerevisiae strains, but also mannobiose | ~ 40% |  | 
2 | OC[C@H]1O[C@@H](O[C@H]2[C@H](O)[C@H](O)C(O)O[C@@H]2CO)[C@@H](O)[C@@H](O)[C@@H]1O (some centres unmarked) [MB, mannobiose] | not only cellobiose was imported by both S. cerevisiae strains, but also mannobiose |  | ~ 18% | 
3 | O=[N+]([O-])c1ccc(O[C@@H]2O[C@H](CO)[C@@H](O)[C@H](O)[C@@H]2O)cc1 [ρNP-β-Man, 4-nitrophenyl-β-D-mannopyranoside] |  |  |  | The purified enzyme showed strong activity on ρNP-β-D-mannopyranoside with high specificity
